This is an account of results in PMC10706087, “The Subtype Selectivity in Search of Potent Hypotensive Agents among 5,5-Dimethylhydantoin Derived α1-Adrenoceptors Antagonists” (International Journal of Molecular Sciences, 2023).

The test system of assay [1] is arterial blood pressure of normotensive Wistar rats. The experiment in a line: Influence on blood pressure in normotensive anesthetized rats after i.v. administration. It is filed as in vivo, rat. The settings on record: for Diastolic blood pressure / Systolic blood pressure: 1.0 mg/kg i.v., mean, n = 6. An outline of the steps:
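Normotensive rats were given thiopental (75 mg/kg) intraperitoneally as anesthesia. A heparinized saline-filled polyethylene tube was placed in the left carotid artery, and blood pressure was recorded with a PowerLab Apparatus. Compounds dissolved in ethyl alcohol 5% − kolliphor 5% − water 90% were injected intravenously at 1 mL/kg after 20 min of stabilization. Pressures were compared by two-way ANOVA with Sidak's post-hoc test.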

In assay [2] the target is α1-adrenoceptors (α1-ARs), rat cerebral cortex. Conditions: published previously; read-out: α1-adrenoceptor affinity Ki; cited from earlier work.
A further assay has as its system α1D- and α1A-AR subtype. Also noted: method as in PMID 21753885. Conditions: cited from earlier work.
[3] abbreviates: 0 min (initial, before administration).

Each structure is given as a SMILES string. Counter-ions that a name gives are not always drawn.

On to `COc1ccccc1N1CCN(CCCNc2cc(=O)n(C)c(=O)n2C)CC1` [Urapidil, urapidil hydrochloride, reference compound], for which the Diastolic blood pressure is recorded as 93.0 in assay [1] (setting [3]); 77.5 in assay [1] (5 min); 75.5 in assay [1] (10 min); 76.0 in assay [1] (20 min); 78.8 in assay [1] (30 min); 79.2 in assay [1] (40 min). Also, the Diastolic blood pressure was 80.8 in assay [1] (50 min) and 81.2 in assay [1] (60 min). Also, the Systolic blood pressure in assay [1] (setting [3]) amounted to 127.3; in assay [1] (5 min), 111.3; in assay [1] (10 min) it was 109.5; in assay [1] (20 min), 110.2; in assay [1] (30 min), 112.2; in assay [1] (40 min), 112.7. Further, the Systolic blood pressure is 114.0 in assay [1] (50 min) and 115.0 in assay [1] (60 min). In addition, the “lowest hypotensive (effective) dose” value in assay [1] (i.v., normotensive anesthetized rats) was 1.0 mg/kg. Besides, the Ki in assay [2] is 128 nM.
`COc1ccccc1N1CCN(CC(O)COc2cccc3ccccc23)CC1` (stereo not shown) [naftopidil]: the “higher affinity for α1D- than for α1A-AR subtype” value with α1D- and α1A-AR subtype is 3 fold.
